# Assays:
# human Kv7.5/7.3 = human Kv7.5/7.3 (Homo sapiens (Human), UniProt O43525+Q9NR82); assay: SyncroPatch 384 electrophysiology, CHO cells stably expressing human Kv7.5/7.3; type: cell-based; details: Table A; for Kv7.5/7.3/Kv7.2 selectivity ratio: Kv7.5/7.3 EC50 over Kv7.2 EC50
# Description: (§1) The potency of Kv7 potentiators was determined using the SyncroPatch 384 (Nanion) high throughput electrophysiology platform.
# (§2) CHO cells stably expressing either human Kv7.2, Kv7.4 or Kv7.5/7.3 under a constitutive CMV promoter were used for these studies. Cells were maintained in F12 Hams+1 mM L-glutamine (Hyclone) supplemented with 10% FBS (Sigma), 0.3×NEAA (Non-essential Gamino-acids) and 400 ug/ml G418 at 37° C. in 5% CO2. Cells were cultured in T-225 flasks (Nunc) for 2-3 days to reach 85-95% confluence prior to electrophysiological recording.
# (§3) Earle's balanced salt solution (in mM): 135 NaCl, 5.4 KCl, 5 Glucose, 2 CaCl2, 1 MgCl2, 5 HEPES, pH 7.4. Seal enhancer solution (in mM): 90 NaCl, 3 KCl, 35 CaCl2, 10 MgCl2, 10 HEPES, pH 7.4. Extracellular recording solution (in mM): 71 NaCl, 70 NMDG, 13 KCl, 5 Glucose, 2 CaCl2, 1 MgCl2, 10 HEPES, pH 7.4. Intracellular recording solution (in mM): 130 KF, 20 KCl, 4 EGTA, 10 HEPES, 2 EDTA, 0.01 Escin, pH 7.2.
# (§4) Cells were harvested for electrophysiological recording upon reaching appropriate confluence. Cells were first washed in DPBS (Hyclone, Cat #SH30028.03) and then 2 ml of Accutase (MP Biomedicals #1000449) was added at 28° C. until ˜90% of cells were suspended. F12 HAM's media+1 mM L-glutamine (Hyclone, SH30026.02) was then added to the flask to dilute the accutase. Cells were then triturated until a single cell suspension was achieved, a cell count was performed, and cells were centrifuged for 2 min. at 1,000 rpm. Media was then aspirated, and cells were resuspended in Earle's balanced salt solution to a concentration of 0.75×10^6 cells/ml and allowed to recover for 25 min at 10° C.
# (§5) At the beginning of each assay, 20 μl of cell suspension was dispensed into each well of a multi-hole 384-well SyncroPatch chip by the onboard pipettor. Cell sealing was initiated, and seal enhancer solution was added to facilitate seal formation. Upon completion of sealing, cells were washed 3 times with extracellular recording solution and the assay voltage protocol was started. Human Kv7.2, Kv7.4 or Kv7.5/7.3 channels were evaluated using a voltage protocol in which cells were voltage-clamped at a holding potential of −60 mV. Potassium currents were continuously activated with a series of three voltage steps to −30 mV for 3 seconds, 40 mV for 1 second and −90 mV for 4 seconds with 12 seconds between successive voltage sweeps. Potassium currents were measured from the −90 mV repolarizing step. Baseline current was assessed for 3.5 minutes prior to the addition of 5.6 μM zinc pyrithione (1 μM for Kv7.4). Kv7.2, Kv7.4 or Kv7.5/7.3 current in the presence of zinc pyrithione was acquired over five minutes to allow channels to reach steady state activity prior to addition of test agents. Channel activity was monitored for three minutes preceding the addition of 30 μM ML-213 (3 minutes) to achieve maximum activation.
# (§6) Data were collected on the SyncroPatch platform using PatchControl software (Nanion) and processed and analyzed using DataControl Software (Nanion). Percent activation was calculated from potassium current as follows: The average current for the 5 sweeps in the presence of zinc pyrithione immediately preceding test agent addition was taken as the ‘control’ data. Likewise, the average potassium current in the presence of test agents 5 sweeps immediately preceding addition of 30 μM ML-213 was determined for ‘drug’ data. The average potassium current 5 sweeps immediately prior to addition of 150 mM TEA+10 μM XE-991 was determined for ‘max activation’ data while average currents from 5 sweeps immediately following addition of TEA was determined for ‘max inhibition’ data. Percent activation for each of the 384-wells of a sealchip was calculated as ((‘drug’−‘max inhibition’)/(‘max activation’−‘max inhibition’))*100 with Pipeline Pilot (Accelrys). […]
# human Kv7.2 = human Kv7.2 (Homo sapiens (Human), UniProt O43526); assay: SyncroPatch 384 electrophysiology, CHO cells stably expressing human Kv7.2; type: cell-based
# Description: as §1, §2, §3, §4, §5, §6
# [1] = Human liver microsomal clearance; type: in vitro ADME; details: both sexes, liver microsomes, Table B, 0.5 μM compound, 0.25 mg/mL microsomes, NADPH, 37° C., read-out: Human liver microsomal intrinsic clearance CLint
# Description: Pooled mixed gender human liver microsomes were purchased from BioIVT at a concentration of 20 mg protein/mL and stored at −80° C. Incubations were conducted in V-bottomed 350 μL polypropylene 96-well plates. Compounds were diluted in phosphate buffer (final concentrations 0.5 μM compound, 0.5% DMSO) and mixed with diluted liver microsomes (fc 0.25 mg/mL). This mixture was aliquoted onto the assay plate (six wells per compound) and pre-warmed at 37° C. for ten minutes. Addition of NADPH (fc 0.5 mM, final incubation volume 100 μL) to each well started the time course. Reactions were stopped at 0.5, 3, 5, 10, 20 & 30 minutes by addition of 150 μL acetonitrile containing internal standard (IS; 0.125 μg/mL daidzein) and stopped samples were removed to a clean polypropylene plate. At the end of the assay the plate was refrigerated for an hour and then centrifuged at 3000 rpm for 10 minutes at 4° C. A sample of the supernatant was removed to a fresh plate and diluted 10-fold with 50:50 acetonitrile:water, then heat sealed. Analysis was by liquid chromatography coupled with tandem mass spectrometry (LC-MS/MS) for analyte and IS levels. Ratios of the analyte and IS peak areas were generated for results calculation (IS ratio). Dextromethorphan and verapamil were included in each experiment as controls for high clearance compounds. IS ratio data were converted into natural log values which were plotted against time and a linear regression fit applied. The slope of the line was returned and converted into the elimination constant (kel) by multiplying by −1. The elimination constant was used to calculate the in vitro CLint: in vitro CLint (μL/min/mg protein) is kel* (1000/protein conc in mg/mL).
# human Kv7.4 = human Kv7.4 (Homo sapiens (Human), UniProt P56696); assay: SyncroPatch 384 electrophysiology, CHO cells stably expressing human Kv7.4; type: cell-based; details: Table C; for Kv7.4/Kv7.2 selectivity ratio: Kv7.4 EC50 over Kv7.2 EC50
# Description: as §1, §2, §3
# Cells were harvested for electrophysiological recording upon reaching appropriate confluence. Cells were first washed in DPBS (Hyclone, Cat #SH30028.03) and then 2 ml of Accutase (MP Biomedicals #1000449) was added at 28° C. until ˜90% of cells were suspended. F12 HAM's media+1 mM L-glutamine (Hyclone, SH30026.02) was then added to the flask to dilute the accutase. […]
# At the beginning of each assay, 20 μl of cell suspension was dispensed into each well of a multi-hole 384-well SyncroPatch chip by the onboard pipettor. […] Human Kv7.2, Kv7.4 or Kv7.5/7.3 channels were evaluated using a voltage protocol in which cells were voltage-clamped at a holding potential of −60 mV. […] Potassium currents were measured from the −90 mV repolarizing step. Baseline current was assessed for 3.5 minutes prior to the addition of 5.6 μM zinc pyrithione (1 μM for Kv7.4). […] Channel activity was monitored for three minutes preceding the addition of 30 μM ML-213 (3 minutes) to achieve maximum activation.
# as §6, with “data.” for “data. Percent activation for each of the 384-wells of a sealchip was calculated as ((‘drug’−‘max inhibition’)/(‘max activation’−‘max inhibition’))*100 with Pipeline Pilot (Accelrys).”
# [2] = Table 1, CHO cells, potassium current at -90 mV step, in presence of zinc pyrithione
# Chain of human Kv7.5/7.3 (Q9NR82 whole entry): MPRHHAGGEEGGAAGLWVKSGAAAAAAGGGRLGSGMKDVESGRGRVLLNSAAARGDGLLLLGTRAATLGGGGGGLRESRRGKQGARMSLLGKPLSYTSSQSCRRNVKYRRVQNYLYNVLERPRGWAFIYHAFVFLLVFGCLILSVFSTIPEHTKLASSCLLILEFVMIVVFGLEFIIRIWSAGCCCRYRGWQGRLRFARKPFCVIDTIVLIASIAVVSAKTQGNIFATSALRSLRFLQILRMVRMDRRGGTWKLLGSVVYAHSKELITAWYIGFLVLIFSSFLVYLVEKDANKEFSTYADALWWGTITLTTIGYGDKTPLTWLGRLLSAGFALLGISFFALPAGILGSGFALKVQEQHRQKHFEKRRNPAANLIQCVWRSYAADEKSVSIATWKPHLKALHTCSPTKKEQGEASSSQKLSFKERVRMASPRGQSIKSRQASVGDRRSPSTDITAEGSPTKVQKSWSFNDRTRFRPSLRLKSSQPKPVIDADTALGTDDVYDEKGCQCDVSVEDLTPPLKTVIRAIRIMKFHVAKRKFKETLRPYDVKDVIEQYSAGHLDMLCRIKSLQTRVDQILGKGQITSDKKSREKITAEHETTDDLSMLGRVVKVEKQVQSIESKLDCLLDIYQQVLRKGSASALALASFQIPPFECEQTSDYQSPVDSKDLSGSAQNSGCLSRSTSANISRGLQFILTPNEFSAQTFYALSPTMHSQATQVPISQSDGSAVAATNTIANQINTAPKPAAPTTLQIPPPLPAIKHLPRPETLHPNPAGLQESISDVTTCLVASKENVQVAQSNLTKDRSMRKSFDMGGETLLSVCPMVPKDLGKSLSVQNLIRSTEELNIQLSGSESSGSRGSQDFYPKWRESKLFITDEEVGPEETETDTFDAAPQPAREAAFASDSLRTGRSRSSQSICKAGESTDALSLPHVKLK
# Chain of human Kv7.5/7.3 (O43525 whole entry): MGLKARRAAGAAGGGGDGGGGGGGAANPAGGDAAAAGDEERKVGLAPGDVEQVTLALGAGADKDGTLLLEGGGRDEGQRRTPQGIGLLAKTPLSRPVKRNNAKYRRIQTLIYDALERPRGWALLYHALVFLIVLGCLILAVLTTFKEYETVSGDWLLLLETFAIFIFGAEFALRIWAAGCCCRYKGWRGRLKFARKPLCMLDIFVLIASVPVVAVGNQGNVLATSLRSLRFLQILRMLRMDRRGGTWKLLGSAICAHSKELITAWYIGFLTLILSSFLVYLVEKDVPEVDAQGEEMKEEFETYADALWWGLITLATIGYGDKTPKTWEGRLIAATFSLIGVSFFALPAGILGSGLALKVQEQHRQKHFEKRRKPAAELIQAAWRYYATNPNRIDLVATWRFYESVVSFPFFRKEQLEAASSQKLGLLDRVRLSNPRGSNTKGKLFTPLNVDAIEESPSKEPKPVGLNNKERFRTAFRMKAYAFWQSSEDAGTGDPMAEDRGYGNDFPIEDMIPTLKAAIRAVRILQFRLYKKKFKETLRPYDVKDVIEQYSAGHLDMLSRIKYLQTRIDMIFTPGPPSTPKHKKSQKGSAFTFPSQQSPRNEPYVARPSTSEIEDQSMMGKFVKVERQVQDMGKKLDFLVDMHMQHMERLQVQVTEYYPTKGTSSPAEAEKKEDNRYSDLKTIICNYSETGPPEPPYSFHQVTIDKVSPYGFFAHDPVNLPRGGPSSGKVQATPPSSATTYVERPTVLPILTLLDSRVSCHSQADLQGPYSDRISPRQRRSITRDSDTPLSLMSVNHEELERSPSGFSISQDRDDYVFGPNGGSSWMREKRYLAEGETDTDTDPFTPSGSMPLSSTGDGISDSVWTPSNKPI
# Chain of human Kv7.4 (P56696 whole entry): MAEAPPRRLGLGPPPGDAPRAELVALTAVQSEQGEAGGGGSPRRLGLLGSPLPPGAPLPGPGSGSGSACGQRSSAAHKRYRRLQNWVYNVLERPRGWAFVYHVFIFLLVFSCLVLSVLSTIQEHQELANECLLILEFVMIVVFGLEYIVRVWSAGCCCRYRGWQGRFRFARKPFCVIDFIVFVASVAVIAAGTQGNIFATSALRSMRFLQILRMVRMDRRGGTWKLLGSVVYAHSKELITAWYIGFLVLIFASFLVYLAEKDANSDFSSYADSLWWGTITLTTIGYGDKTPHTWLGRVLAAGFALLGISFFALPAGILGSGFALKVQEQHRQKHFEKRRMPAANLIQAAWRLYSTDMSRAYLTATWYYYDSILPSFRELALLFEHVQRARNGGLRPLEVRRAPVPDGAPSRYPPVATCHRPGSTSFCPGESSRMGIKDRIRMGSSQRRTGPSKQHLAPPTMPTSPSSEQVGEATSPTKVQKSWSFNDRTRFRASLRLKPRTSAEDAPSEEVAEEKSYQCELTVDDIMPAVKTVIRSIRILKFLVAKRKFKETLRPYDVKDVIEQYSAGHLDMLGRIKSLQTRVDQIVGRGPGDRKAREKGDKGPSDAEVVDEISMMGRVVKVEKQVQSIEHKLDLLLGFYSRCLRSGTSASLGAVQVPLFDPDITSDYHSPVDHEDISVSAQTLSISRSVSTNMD
# Chain of human Kv7.2 (O43526 whole entry): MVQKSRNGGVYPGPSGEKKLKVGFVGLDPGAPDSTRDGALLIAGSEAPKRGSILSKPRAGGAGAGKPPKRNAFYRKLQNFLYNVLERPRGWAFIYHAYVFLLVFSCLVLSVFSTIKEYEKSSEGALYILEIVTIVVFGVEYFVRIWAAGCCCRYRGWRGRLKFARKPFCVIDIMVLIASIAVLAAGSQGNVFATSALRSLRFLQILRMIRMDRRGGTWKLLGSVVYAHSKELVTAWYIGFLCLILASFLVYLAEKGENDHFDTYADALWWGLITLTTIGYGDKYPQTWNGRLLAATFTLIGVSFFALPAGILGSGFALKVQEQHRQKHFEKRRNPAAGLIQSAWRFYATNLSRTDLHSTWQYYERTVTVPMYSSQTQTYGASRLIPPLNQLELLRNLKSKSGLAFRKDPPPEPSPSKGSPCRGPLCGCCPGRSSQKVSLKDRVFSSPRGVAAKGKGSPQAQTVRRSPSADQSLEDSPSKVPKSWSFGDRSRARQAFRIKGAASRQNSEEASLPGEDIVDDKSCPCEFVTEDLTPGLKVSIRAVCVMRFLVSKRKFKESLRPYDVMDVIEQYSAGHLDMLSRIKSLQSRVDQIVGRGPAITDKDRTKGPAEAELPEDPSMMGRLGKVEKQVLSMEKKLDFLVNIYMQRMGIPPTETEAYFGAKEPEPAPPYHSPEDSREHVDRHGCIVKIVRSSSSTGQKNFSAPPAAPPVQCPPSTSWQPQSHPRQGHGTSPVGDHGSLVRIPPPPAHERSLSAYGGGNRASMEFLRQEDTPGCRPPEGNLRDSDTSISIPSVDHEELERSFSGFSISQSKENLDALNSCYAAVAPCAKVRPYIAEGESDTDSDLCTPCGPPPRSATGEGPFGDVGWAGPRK
Structure (SMILES),EC50 (human Kv7.5/7.3),Kv7.5/7.3/Kv7.2 selectivity ratio (human Kv7.5/7.3),EC50 (human Kv7.2; [2]),microsomal CLint at 0.5 μM [1],EC50 (human Kv7.2; Table A),EC50 (human Kv7.2; Table C),EC50 (human Kv7.4),Kv7.4/Kv7.2 selectivity ratio (human Kv7.4)
"O=C(NCc1ccnc(OC(F)F)c1)N[C@H]1CC2(CCC2)[C@@H]1O (racemic) [Example 25, 1-[[2-(difluoromethoxy)pyridin-4-yl]methyl]-3-[rac-(2R,3R)-3-hydroxyspiro[3.3]heptan-2-yl]urea]",> 30000 nM,>41,740 nM,14.2 µL/min/mg,,,,
"O=C(NCc1ccnc(OC(F)F)c1)NC1CCOC2(CCC2)C1 (stereo not shown) [Example 17, 1-[[2-(difluoromethoxy)pyridin-4-yl]methyl]-3-(5-oxaspiro[3.5]nonan-8-yl)urea]",> 30000 nM,>87,340 nM,3.8 µL/min/mg,,,,
"O=C(NCc1ccnc(OC(F)F)c1)N[C@@H]1CCOC2(CCC2)C1 [Example 27, 1-[[2-(difluoromethoxy)pyridin-4-yl]methyl]-3-[(8R)-5-oxaspiro[3.5]nonan-8-yl]urea]",> 30000 nM,>115,260 nM,20.5 µL/min/mg,260 nM,260 nM,> 30000 nM,>115

# More lines, now with the values ahead:
EC50 (human Kv7.5/7.3),Kv7.5/7.3/Kv7.2 selectivity ratio (human Kv7.5/7.3),EC50 (human Kv7.2; [2]),microsomal CLint at 0.5 μM [1],EC50 (human Kv7.2; Table A),EC50 (human Kv7.2; Table C),EC50 (human Kv7.4),Kv7.4/Kv7.2 selectivity ratio (human Kv7.4),Structure (SMILES)
> 30000 nM,>116,260 nM,20 µL/min/mg,260 nM,,,,"O=C(NCc1ccnc(OC(F)F)c1)NC1CCOC2(CCCC2)C1 (stereo not shown) [Example 14, 1-[[2-(difluoromethoxy)pyridin-4-yl]methyl]-3-(6-oxaspiro[4.5]decan-9-yl)urea]"
> 30000 nM,>146,210 nM,20.4 µL/min/mg,210 nM,210 nM,> 30000 nM,>143,"O=C(NCc1ccnc(OC(F)F)c1)NC1CCOC2(CCCC2(F)F)C1 (stereo not shown) [Example 21, 1-[[2-(difluoromethoxy)pyridin-4-yl]methyl]-3-(4,4-difluoro-6-oxaspiro[4.5]decan-9-yl)urea]"
,,140 nM,18.8 µL/min/mg,,,,,"O=C(NCc1ccnc(OC(F)F)c1)NC1CCC2(CC1)CC2(F)F (stereo not shown) [Example 31, 1-[[2-(difluoromethoxy)pyridin-4-yl]methyl]-3-(2,2-difluorospiro[2.5]octan-6-yl)urea]"

# — patent publication US20240316020A1, “Novel Pyridine Compounds” (ICAGEN, LLC, priority 2021, published 2024)
